One block for each molecule: values may come before it.
Key:
NCL = assay: Determination of NCL IC50 (loss of NCL nucleolar intensity, immunofluorescence image analysis); format: cell-based; conditions: U2OS cells, 3 h treatment, 0.1-10 μM, fold change to control, three-parameter fit
Description: (§1) Immunofluorescence, Epifluorescence Microscopy and Image Analysis. […] Cells were stained for RPA194 (C-1, Santa Cruz Biotechnology) and NCL (4E2, Abeam). […] DNA was counterstained with DAPI (Invitrogen). Images were captured using Axioplan2 fluorescence microscope (Zeiss) equipped with AxioCam HRc CCD-camera and AxioVision 4.5 software using EC Plan-Neofluar 20×/0.75 objective (Zeiss). […] Hue saturation and brightness range were defined individually for RPA194 and NCL. All values were normalized to the DNA content. Two-four fields of each treatment were recorded and quantification was based on an average of 200 cells.
Determination of RPA194 and NCL IC50. […] All compounds, except when indicated, were tested in duplicate independent biological experiments Immunostaining for NCL and RPA194 was conducted separately, and cells were counterstained for DNA. Two-four fields of each treatment were captured using epifluorescence microscopy as above, and contained on average of 200 cells/analysis. […] Hue saturation and brightness range were defined individually for RPA194 and NCL, and all values were normalized to the DNA content.

RPA194 = assay: Determination of RPA194 IC50 (immunofluorescence image analysis of RPA194 degradation); format: cell-based; conditions: U2OS cells, 3 h treatment, 0.1-10 μM, fold change to control, three-parameter fit
Description: as §1
Determination of RPA194 and NCL IC50. U2OS cells grown on coverslips were treated the compounds at 0.1, 0.5, 1, 5 and 10 μM, or vehicle (DMSO)-treated for 3 h and fixed and stained as above. All compounds, except when indicated, were tested in duplicate independent biological experiments Immunostaining for NCL and RPA194 was conducted separately, and cells were counterstained for DNA. Two-four fields of each treatment were captured using epifluorescence microscopy as above, and contained on average of 200 cells/analysis. […] Hue saturation and brightness range were defined individually for RPA194 and NCL, and all values were normalized to the DNA content.

NCI60 cancer cell lines = conditions: earlier studies of the inventors; cited from earlier work
tumor burden = conditions: earlier studies of the inventors; cited from earlier work

IC50 (NCL): 0.17 µM
IC50 (RPA194): 0.12 µM
Compound: C[C@H](N)CNC(=O)c1cccn2c(=O)c3cc4ccccc4cc3nc12 [Compound 35, N-[(2S)-2-aminopropyl]-12-oxo-12H-benzo[g]pyrido[2,1-b]quinazoline-4-carboxamide]

IC50 (NCL): 0.14 µM
IC50 (RPA194): 0.16 µM
Compound: CN(C)C(C)(C)CNC(=O)c1cccn2c(=O)c3cc4ccccc4cc3nc12 [Compound 31, N-[2-(dimethylamino)-2-methyl-propyl]-12-oxo-12H-benzo[g]pyrido[2,1-b]quinazoline-4-carboxamide]

IC50 (NCL): 0.1 µM
IC50 (RPA194): 0.1 µM
Compound: CC(N)CNC(=O)c1cccn2c(=O)c3cc4ccccc4cc3nc12 (stereo not drawn) [Compound 32, N-(2-aminopropyl)-12-oxo-12H-benzo[g]pyrido[2,1-b]quinazoline-4-carboxamide]

IC50 (NCL): > 100 µM
IC50 (RPA194): 3.5 µM
Compound: O=C(NCCc1ccncc1)c1cccn2c(=O)c3cc4ccccc4cc3nc12 [Compound 37, 12-oxo-N-[2-(4-pyridyl)ethyl]-12H-benzo[g]pyrido[2,1-b]quinazoline-4-carboxamide]

IC50 (NCL): 0.81 µM
IC50 (RPA194): 0.11 µM
Compound: C[C@@H](N)CNC(=O)c1cccn2c(=O)c3cc4ccccc4cc3nc12 [Compound 33, N-[(2R)-2-aminopropyl]-12-oxo-12H-benzo[g]pyrido[2,1-b]quinazoline-4-carboxamide]

More lines, now with the values behind:

Compound: CN1CC(NC(=O)c2cccn3c(=O)c4cc5ccccc5cc4nc23)C1 [Compound 29, N-(1-methylazetidin-3-yl)-12-oxo-12H-benzo[g]pyrido[2,1-b]quinazoline-4-carboxamide]
IC50 (NCL): 0.47 µM
IC50 (RPA194): 0.9 µM

Compound: CC(C)(N)CNC(=O)c1cccn2c(=O)c3cc4ccccc4cc3nc12 [Compound 30, N-(2-amino-2-methyl-propyl)-12-oxo-12H-benzo[g]pyrido[2,1-b]quinazoline-4-carboxamide]
IC50 (NCL): 0.2 µM
IC50 (RPA194): 0.27 µM

Compound: CCN(CC)C1CCN(C(=O)c2cccn3c(=O)c4cc5ccccc5cc4nc23)C1 (stereo not drawn) [Compound 19, 4-[3-(diethylamino)pyrrolidine-1-carbonyl]-12H-benzo[g]pyrido[2,1-b]quinazoline-12-one]
IC50 (NCL): 11 µM
IC50 (RPA194): 32 µM

Compound: CN(C)CCNC(=O)c1cccn2c(=O)c3cc4ccccc4cc3nc12 [BMH-21, 12H-Benzo[g]pyrido[2,1-b]quinazoline-4-carboxamide, N-[2(dimethylamino)ethyl]-12-oxo]
anticancer activity in NCI60 cancer cell lines (NCI60 cancer cell lines): broad and potent anticancer activity
tumor burden in mouse xenograft assays (tumor burden): reduced tumor burden

Reference: patent US11001581B2, “Compounds which inhibit RNA polymerase, compositions including such compounds, and their use” (THE JOHNS HOPKINS UNIVERSITY, priority 2014, dated 2021)
